Assay results from patent US8772319B2 (priority 2004, dated 2014).
Several values for one entry are separate records, joined by “and”; a condition that tells them apart may be missing. Equal values may be shown once. Where a name gives a salt, the structure may show the parent alone. Read-outs that look alike come from different tables or passages of the source.

Columns and labels:
male Swiss-Webster mice [1] = assay: Locomotor activity, compound alone, 1-h session; format: in vivo, mouse; conditions: for ED50: Mus musculus, ip, 1 h, read-out: ED50, dose producing 1/2 maximal stimulant activity (S, stimulation); for mode of action: ligand alone study; for ME/CME, Maximal Effect/Cocaine Maximal Effect: mouse locomotor activity; for effect on spontaneous LMA: compound alone
Procedure: (§1) 3. Locomotor Activity. […] Panels of infrared beams (16 beams) and corresponding photodetectors were located in the horizontal direction along the sides of each activity chamber. […] Just prior to placement in the apparatus, all mice received a saline injection IP. In all studies, horizontal activity (interruption of 1 photocell beam) was measured for 1-h within 10-min periods. Testing was conducted with one mouse per activity chamber. […] Plot the mean (±SEM) maximal stimulant activity (total counts in the 30 min period divided by 3) vs dose. Perform a log10 transformation of the 30 min period average counts for individual subjects to homogenize variances for subsequent analyses. […] Fit the 30 min period average counts across subjects to a function of log10 dose using least-squares curve-fitting analyses (i.e. TableCurve software from Jandel). Estimate the maximum effect from the resultant dose-response curve. […] Determine the ED50 (dose that produces ½ maximal stimulant activity) from a linear regression analysis of the ascending portion (up to the dose that produces a maximal effect) of the curve. […] Plot the mean (±SEM) activity (total counts in the 30 min period divided by 3) vs dose. Perform a log10 transformation of the 30 min period average counts for individual subjects to homogenize variances for subsequent analyses. Conduct an ANOVA and contrast (specified a priori) each dose of the test compound to the vehicle to determine significant (p<0.05) dose effects. Conduct a linear least-squares regression analysis; regress the min period average counts across subjects over the descending portion of the curve against the log10 dose of the test compound. […] Perform a log10 transformation of the 30 min period average counts for individual subjects to homogenize variances for subsequent analyses. […] Conduct a linear least-squares regression analysis; regress the 30 min period average counts across subjects over the descending portion of the curve against the log10 dose of the test compound. […] Locomotor Activity 8-hour time course/dose response study. […] A panel of infrared beams (16 beams) and corresponding photodetectors were located in the horizontal direction along the sides of each activity chamber. A 7.5-W incandescent light above each chamber provided dim illumination. Fans provided an 80-dB ambient noise level within the chamber. […] In all studies, horizontal activity (interruption of photocell beams) was measured for 8-h within 10-min periods, beginning at 0800 hrs (2 hours after lights on). Testing was conducted with one mouse per activity chamber. Compound alone study.

male Swiss-Webster mice [2] = assay: Cocaine/compound interaction study on locomotor activity; format: in vivo, mouse; conditions: for Attenuation of cocaine-induced LMA: 20 mg/kg of cocaine; for AD50, dose attenuating cocaine-induced stimulation by 50%: Table 8, ligand-cocaine interaction study, 20 mg/kg cocaine IP
[3] = molecular target: T1, human dopamine transporter (hDAT) (Homo sapiens, UniProt Q01959); assay: biochemical; format: binding
T1 sequence (Q01959 whole entry): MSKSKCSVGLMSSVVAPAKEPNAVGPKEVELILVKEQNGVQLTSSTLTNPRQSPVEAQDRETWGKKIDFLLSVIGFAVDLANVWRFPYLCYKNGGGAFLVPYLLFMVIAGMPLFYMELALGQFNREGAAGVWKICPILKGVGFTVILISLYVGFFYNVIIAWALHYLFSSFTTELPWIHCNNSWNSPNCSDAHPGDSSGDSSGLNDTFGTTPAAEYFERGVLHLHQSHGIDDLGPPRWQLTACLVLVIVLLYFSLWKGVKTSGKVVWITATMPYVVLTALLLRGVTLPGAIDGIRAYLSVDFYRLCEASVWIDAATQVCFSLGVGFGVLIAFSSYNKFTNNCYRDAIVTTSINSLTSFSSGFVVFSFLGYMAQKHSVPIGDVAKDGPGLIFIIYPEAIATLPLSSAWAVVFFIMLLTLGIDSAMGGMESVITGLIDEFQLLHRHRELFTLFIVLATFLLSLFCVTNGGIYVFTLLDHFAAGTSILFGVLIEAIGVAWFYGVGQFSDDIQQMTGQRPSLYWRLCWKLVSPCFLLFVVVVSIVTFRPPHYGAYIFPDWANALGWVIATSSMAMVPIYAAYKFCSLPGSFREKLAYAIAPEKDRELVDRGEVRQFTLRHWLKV

[4] = molecular target: T1, human dopamine transporter (hDAT); assay: cell-based; conditions: for Discrimination Ratios [3H]DA reuptake/DAT binding: Table 1-1
[5] = molecular target: T2, human norepinephrine transporter (hNET) (Homo sapiens, UniProt P23975); assay: biochemical; conditions: read-out: NET binding affinity Ki
T2 sequence (P23975 whole entry): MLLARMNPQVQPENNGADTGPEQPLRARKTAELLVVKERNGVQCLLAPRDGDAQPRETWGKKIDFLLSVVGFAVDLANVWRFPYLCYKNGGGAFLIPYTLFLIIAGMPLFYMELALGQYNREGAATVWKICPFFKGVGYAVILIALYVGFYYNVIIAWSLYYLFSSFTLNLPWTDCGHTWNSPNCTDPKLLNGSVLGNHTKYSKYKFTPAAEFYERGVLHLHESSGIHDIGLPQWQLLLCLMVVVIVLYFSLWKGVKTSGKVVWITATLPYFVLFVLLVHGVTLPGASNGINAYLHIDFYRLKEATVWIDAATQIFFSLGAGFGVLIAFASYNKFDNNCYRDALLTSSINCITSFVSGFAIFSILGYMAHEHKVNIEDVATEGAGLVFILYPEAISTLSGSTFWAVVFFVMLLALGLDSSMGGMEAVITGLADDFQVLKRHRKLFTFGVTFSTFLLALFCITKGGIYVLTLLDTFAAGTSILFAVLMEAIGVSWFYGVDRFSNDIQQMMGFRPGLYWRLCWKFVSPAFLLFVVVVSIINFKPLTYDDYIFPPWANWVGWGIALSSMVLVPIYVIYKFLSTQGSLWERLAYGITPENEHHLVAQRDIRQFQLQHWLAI

male Swiss-Webster mice [6] = assay: Locomotor activity 8-hour time course/dose response study; conditions: for ED50: Mus musculus, ip, 8 h, read-out: ED50, dose producing 1/2 maximal stimulant activity (S, stimulation)
Procedure: as §1

[7] = molecular target: T3, human serotonin transporter (hSERT) (Homo sapiens, UniProt P31645); assay: cell-based
T3 sequence (P31645 whole entry): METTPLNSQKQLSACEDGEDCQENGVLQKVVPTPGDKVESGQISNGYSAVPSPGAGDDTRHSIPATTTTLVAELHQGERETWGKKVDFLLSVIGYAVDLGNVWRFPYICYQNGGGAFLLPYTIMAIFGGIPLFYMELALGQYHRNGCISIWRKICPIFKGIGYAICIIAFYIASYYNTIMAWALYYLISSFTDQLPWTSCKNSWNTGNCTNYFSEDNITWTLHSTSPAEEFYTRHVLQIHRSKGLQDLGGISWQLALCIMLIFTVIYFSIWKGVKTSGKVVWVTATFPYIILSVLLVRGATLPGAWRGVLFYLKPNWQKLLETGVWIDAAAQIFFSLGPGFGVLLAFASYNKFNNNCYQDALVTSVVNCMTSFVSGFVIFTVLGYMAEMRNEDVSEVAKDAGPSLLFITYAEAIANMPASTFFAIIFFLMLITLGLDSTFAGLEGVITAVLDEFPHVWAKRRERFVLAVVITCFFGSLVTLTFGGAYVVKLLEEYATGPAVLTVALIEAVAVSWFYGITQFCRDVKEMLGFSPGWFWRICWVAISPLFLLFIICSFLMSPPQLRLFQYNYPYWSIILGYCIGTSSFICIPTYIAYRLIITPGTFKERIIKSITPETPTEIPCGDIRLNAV

[8] = molecular target: T2, human norepinephrine transporter (hNET); assay: cell-based; conditions: read-out: Reuptake Inhibition [3H]NE IC50
[9] = molecular target: T3, human serotonin transporter (hSERT); assay: biochemical; conditions: [125I]RTI-55, read-out: SERT binding affinity Ki
[10] = Table 8, mouse, IP, ligand alone, 1-h session
[11] = Reuptake Inhibition [3H]5-HT IC50, Table 1-1
[12] = Reuptake Inhibition [3H]DA IC50, Table 1-1

O=[N+]([O-])c1ccc(S(=O)(=O)N2CCN(CCCCOC(c3ccc(F)cc3)c3ccc(F)cc3)CC2)cc1 (as salt: oxalate) [Compound 42, 1-[4-[Bis(4-fluorophenyl)methoxy]butyl]-4-(4-nitrobenzenesulfonyl)piperazine]
melting point: 170 to 173 °C

Fc1ccc(C(OCCCCN2CCN(c3ccccc3F)CC2)c2ccc(F)cc2)cc1 [Compound 30, 1-(2-Fluorophenyl)-4-[4-[bis(4-fluorophenyl)methoxy]butyl]piperazine]
ED50 (male Swiss-Webster mice [1]): 0.015 mg/kg
mode of action (male Swiss-Webster mice [1]; Table 8): monophasic
ME/CME, Maximal Effect/Cocaine Maximal Effect (male Swiss-Webster mice [1]; Table 8): 0.49
effect on spontaneous LMA (male Swiss-Webster mice [1]; mouse): significant increase
Attenuation of cocaine-induced LMA (male Swiss-Webster mice [2]): failed to attenuate
AD50, dose attenuating cocaine-induced stimulation by 50% (male Swiss-Webster mice [2]): no attenuation
Binding Ratios NET/DAT ([3]; Table 5): 10.8
Binding Ratios SERT/DAT ([3]; Table 5): 0.8
Discrimination Ratios (DR) [3H]DA reuptake/DAT binding ([4]; Table 6): 11.9

Fc1ccc(C(OCCCCN2CCN(c3ccccc3)CC2)c2ccc(F)cc2)cc1 (as salt: oxalate) [Compound 29, 1-Phenyl-4-[4-[bis(4-fluorophenyl)methoxy]butyl]piperazine]
melting point: 185 to 187 °C

COc1ccccc1N1CCN(CCCCOC(c2ccc(F)cc2)c2ccc(F)cc2)CC1 (as salt: oxalate) [Compound 35, 1-(2-Methoxyphenyl)-4-[4-[bis(4-fluorophenyl)methoxy]butyl]piperazine]
melting point: 139 to 142 °C

Fc1ccc(C(OCCCCN2CCN(Cc3ccc4c(c3)OCO4)CC2)c2ccc(F)cc2)cc1 (as salt: oxalate) [Compound 41, 1-Benzo[1,3]dioxol-5-ylmethyl-4-[4-[bis(4-fluorophenyl)methoxy]butyl]piperazine]
melting point: 231 to 234 °C

O=[N+]([O-])c1ccc(N2CCN(CCCCOC(c3ccc(F)cc3)c3ccc(F)cc3)CC2)cc1 (as salt: oxalate) [Compound 38, 1-[4-Nitrophenyl]-4-[1-[bis(4-fluorophenyl)methoxy]-4-butyl]piperazine]
melting point: 196 to 198 °C

O=C(c1ccccc1)N1CCN(CCCCOC(c2ccc(F)cc2)c2ccc(F)cc2)CC1 (as salt: oxalate) [Compound 40, 1-Benzoyl-4-[1-[bis(4-fluorophenyl)methoxy]-4-butyl]piperazine]
melting point: 121 to 123 °C

Fc1ccc(C(OCCCCN2CCN(c3ccc(Cl)cc3)CC2)c2ccc(F)cc2)cc1 (as salt: oxalate) [Compound 34, 1-(4-Chlorophenyl)-4-[4-[bis(4-fluorophenyl)methoxy]butyl]piperazine]
melting point: 179 to 181 °C

Fc1ccc(C(OCCCCN2CCN(c3ccccc3F)CC2)c2ccc(F)cc2)cc1 (as salt: oxalate) [Compound 30, 1-(2-Fluorophenyl)-4-[4-[bis(4-fluorophenyl)methoxy]butyl]piperazine]
melting point: 156 to 158 °C

O=C1CN(CCCCOC(c2ccc(F)cc2)c2ccc(F)cc2)CCN1 (as salt: oxalate) [Compound 27, 2-Oxo-4-[4-[bis(4-fluorophenyl)methoxy]butyl]piperazine]
melting point: 120 to 123 °C

Fc1ccc(C(OCCCCN2CCN(c3cccc(C(F)(F)F)c3)CC2)c2ccc(F)cc2)cc1 [Compound 36, 1-[3-(Trifluoromethyl)phenyl]-4-[4-[bis(4-fluorophenyl)methoxy]butyl]piperazine]
mode of action (male Swiss-Webster mice [1]; Table 8): monophasic
ID50, dose producing 1/2 maximal depressant activity (I, inhibition) (male Swiss-Webster mice [1]; [10]): 113 mg/kg and 113/I^g mg/kg
effect on spontaneous LMA (male Swiss-Webster mice [1]; mouse): Significant suppression
Ki ([5]; Table 5, [125I]RTI-55, oxalate salts): 0.222 ± 0.0097 µM
AD50, dose attenuating cocaine-induced stimulation by 50% (male Swiss-Webster mice [2]): 18.35 mg/kg
ED50 (male Swiss-Webster mice [6]): 1.1 mg/kg
ME/CME, Maximal Effect/Cocaine Maximal Effect (male Swiss-Webster mice [6]; Table 9, 8 hours): 0.46
mode of action (male Swiss-Webster mice [6]; Table 9, ligand alone study, 8 hours): monophasic
Binding Ratios NET/DAT ([3]; Table 5): 6.8
Binding Ratios SERT/DAT ([3]; Table 5): 6.8
Discrimination Ratios (DR) [3H]DA reuptake/DAT binding ([4]; Table 6): 11.7

O=C(Nc1ccc(F)cc1)N1CCN(CCCCOC(c2ccc(F)cc2)c2ccc(F)cc2)CC1 [Compound 4]
Ki ([5]; Table 1, [125I]RTI-55): 0.133 ± 0.018 µM
IC50 [7, 11]: 0.068 ± 0.028 µM
IC50 ([8]; Table 1-1): 0.045 ± 0.017 µM
Ki [3]: 60 ± 8 nM
Binding Ratios NET/DAT ([3]; Table 1): 2.2
Binding Ratios SERT/DAT ([3]; Table 1): 0.2
IC50 [4, 12]: 9 ± 3 nM
Discrimination Ratios [3H]DA reuptake/DAT binding [4]: 0.2
Ki ([9]; Table 1): 0.014 ± 0.006 µM

Fc1ccc(C(OCCN2CCN(CCCc3ccccc3)CC2)c2ccc(F)cc2)cc1 [GBR 12909, reference compound]
ED50 (male Swiss-Webster mice [1]): 6.24 mg/kg
ME/CME, Maximal Effect/Cocaine Maximal Effect (male Swiss-Webster mice [1]; Table 8): 1.22
ED50 (male Swiss-Webster mice [6]): 6.9 mg/kg
ME/CME, Maximal Effect/Cocaine Maximal Effect (male Swiss-Webster mice [6]; Table 9, 8 hours): 0.73

O=C(Nc1ccc(-c2ccccc2)cc1)N1CCN(CCCCOC(c2ccc(F)cc2)c2ccc(F)cc2)CC1 [Compound 8]
Ki ([5]; Table 1, [125I]RTI-55): 6.94 µM
IC50 [7, 11]: 1.02 ± 0.32 µM
IC50 ([8]; Table 1-1): 0.0563 ± 0.0094 µM
Ki [3]: 67 nM
Binding Ratios NET/DAT ([3]; Table 1): 104
Binding Ratios SERT/DAT ([3]; Table 1): >149
IC50 [4, 12]: 419 ± 34 nM
Discrimination Ratios [3H]DA reuptake/DAT binding [4]: 6.3
Ki ([9]; Table 1, bound given in μM): > 10 µM
Ki ([9]; Table 1): > 10 µM

O=[N+]([O-])c1ccc(S(=O)(=O)N2CCN(CCCCOC(c3ccc(F)cc3)c3ccc(F)cc3)CC2)cc1 [Compound 42, 1-[4-[Bis(4-fluorophenyl)methoxy]butyl]-4-(4-nitrobenzenesulfonyl)piperazine]
ED50, dose producing 1/2 maximal stimulant activity (S, stimulation) (male Swiss-Webster mice [1]; [10]): no activity
Ki ([5]; Table 5, bound given in μM): > 10 µM
Attenuation of cocaine-induced LMA (male Swiss-Webster mice [2]): failed to attenuate
AD50, dose attenuating cocaine-induced stimulation by 50% (male Swiss-Webster mice [2]): no attenuation
IC50 ([7]; Table 6, bound given in μM, read-out: Reuptake Inhibition [3H]5-HT IC50): > 10 µM
IC50 ([8]; Table 6, bound given in μM): > 10 µM
Binding Ratios NET/DAT ([3]; Table 5): >13.2
Binding Ratios SERT/DAT ([3]; Table 5): 6.5
Ki ([3]; Table 5, [125I]RTI-55, oxalate salts, read-out: DAT binding affinity Ki): 760 ± 220 nM
Discrimination Ratios (DR) [3H]DA reuptake/DAT binding ([4]; Table 6): 5.5
IC50 ([4]; Table 6, read-out: Reuptake Inhibition [3H]DA IC50): 4200 ± 1100 nM
Ki ([9]; Table 5, oxalate salts): 4.93 ± 0.67 µM
